Type in all cases: binding, human
Assay [1] has as its system USP8 MIT domain. Nature of the assay: SPOT array of predicted peptides from known interactors, USP8 MIT domain. The note with it: for Percentage (%) normalized to highest intensity and corrected for background: SPOT array, GST-tagged MIT 100 µM, overnight 4 °C, chemiluminescence, highest intensity = DNAJB6; for Percentage (%): Supplementary Fig. 4B, normalized to the highest intensity and corrected for background. The text has this:
To further assess the SLiM-based interactions of the USP8 MIT domain, we designed a peptide array tiling 24 potential binding sites in previously reported USP8 interactors. We used SLiMSearch to search for peptides that contain shorter or longer matches to the motif (Supplementary Table S4A). […] The DNAJB6_118 - 130 peptide was predicted as a binder based on a partial DFx{2,3}R motif. The DNAJB6-USP8 interaction is supported by previous GST-pulldown experiments and colocalization of the two proteins in male mouse germ cells, and the interaction is thought to be of importance to the protein quality control to yield functional spermatozoa. In the case of the CDH1_863 - 877 peptide it was predicted as USP8 MIT ligand based on the presence of an RFxxL motif. The previous support of the CDH1-USP8 interaction is based on proximity labelling mass spectrometry, and our results thus provide evidence for a binary interaction between the two proteins and define a binding site. To confirm that the motifs used to predict the interactions were of importance for binding we designed an alanine scanning peptide SPOT array analysis of the DNAJB6_118 - 130 and the CDH1_863 - 877 peptides. […] In summary, we find that the USP8 MIT domain binds to a MIM1-like motif that can be expressed by [[…]], as well as degenerate variants thereof. […] The membranes of predicted peptides were purchased by JPT Peptide Technologies (Berlin, Germany). The membranes were incubated with blocking buffer containing 5% skim milk in TBST (50 mM Tris, 150 mM NaCl pH 7.5, 0.05% Tween-20) for two hours at room temperature. The blocked membranes were incubated with GST-tagged proteins (100 μM for MIT domain and 150 μM for the Rhodanese domain) in blocking buffer overnight at 4 °C. After rinsed with TBST the membranes were incubated with HRP-conjugated anti-GST antibody (Cytiva, RPN1236; 1:3000 dilution) in blocking buffer for 1 h at 4 °C and subsequently rinsed with TBST to remove any excess antibody. The ECL reagent (Clarity Max Western ECL substrate, 1705062, BioRad) was used for chemiluminescence read-out with the ChemiDoc Imaging system (BioRad). The images were analysed with Fiji (ImageJ2 version 2.9.0). […] used to design the peptide arrays with known interactors predicted to contain the motifs. The background signal intensity was subtracted, and the corrected signal intensities were normalized to the positive control and presented as percentage.

In assay [2] the test system is USP8 MIT domain. Nature of the assay: Proteomic peptide-phage display (ProP-PD) selection against USP8 MIT domain. More on the design: Confidence: scale not given here. To be noted: for max_counts: Total NGS counts; for Confidence: calculated based on four metrics: overlapping peptides, replicated peptides, motif match, peptide counts; for Counts: fraction of NGS counts for a selection; for Promiscuity: number of baits selections where the peptide has been observed, calculated on the domain level; for Replicates: number of screens against the bait protein in which the peptide has been found; for Specificity: proportion for the current bait of the total NGS read counts of the peptide for all baits screened with this library; for NGS counts (%): ProP-PD, human disorderome library, GST-tagged MIT bait, four rounds of selection, percent of NGS counts associated with each peptide, Fig. 1B. Here is the method: We explored the peptide-binding of the USP8 MIT domain by using the purified GST-tagged MIT domain as bait in proteomic peptide-phage display (ProP-PD) selections and a library designed to display the predicted unstructured regions of the human proteome. The peptide-coding regions of the binding-enriched phage pools were analysed by next-generation sequencing (NGS). After filtering for high confidence ligands, ten ligands remained (Fig. 1B; Supplementary Table S1). None of the ten identified protein-protein interactions had been previously reported, based on comparison with the information available in IntAct, HIPPIE and BioGrid (February 2025). Of the USP8 interacting proteins found, the D site-binding protein (DBP), which is a clock-controlled transcription factor, appears as an interesting ligand as USP8 has been reported to be involved in controlling the circadian rhythm. Also, the CCDC88A-encoded protein Girdin is an interactor of potential biological relevance as it is a scaffolding protein involved in the EGFR pathway which USP8 is known to regulate. At the motif level, there was no shared consensus motif among the ten peptide ligands. However, by manual inspection we noticed that four of the peptides contained a shared [LI]xxR[IY]xxL sequence, which appears to be a variation of the [DE]xxLxxRLxxL[KR] MIM1 motif described in the Eukaryotic Linear Motif resource (ELM) (Fig. 1B). We performed a SPOT array alanine scanning analysis in which peptides are synthesised on a membrane, and where each amino acid position of the peptide is mutated to alanine (or glycine if alanine is in the wild type peptide) to evaluate the effect of the amino acid residues in binding. We tested two peptides containing the apparent MIM1-like motif, one from Girdin (Girdin1192 − 1207) and one from the histone-lysine N-methyltransferase SETD1B (SETD1B492 − 507). […] AlphaFold3 (AF3) modelling of the four peptides with the variant MIM1 motif and the MIT domain docked the peptides with high confidence (ipTM scores: HIVEP1_741 − 756: 0.87, Girdin1192 − 1207: 0.85, MLPH481 − 496: 0.82, SETD1B492 − 507: 0.75) at the expected MIM1 binding pocket (Fig. 1D). […] However, the USP8 MIT selection was dominated (more than 94% of NGS counts) by two peptides that lack an apparent MIM1 motif. The two peptides were from the EF-hand calcium-binding domain-containing protein 12 (EFCAB12_1 − 16: […]) and from DBP (DBP116 − 131: […]) (Fig. 1B). […] In comparison to this, the EFCAB12_1 − 16 peptide shares a potential Dx[YF]xxxH[SG] motif with the DBP116 − 131 (Fig. 1B). […] The AF3 model of DBP116 − 131 peptide supports the interaction of D120 of the DBP116 − 131 peptide with the residues K74 and N71 in the MIT domain (Fig. 1G), emphasizing the significance of the aspartic acid at this position. […] Of them, two peptides (SYNE2_853 − 868 and PKNOX1_56 − 71) where placed in the same binding site as the Girdin and DBP peptides with high confidences by AF3 modelling (ipTM 0.92 and 0.74; Supplementary Fig. S3).
Four rounds of phage selections were carried out using the second generation human disorderome library or the constructed deep mutational scanning library. At least three individual replicates were used for each bait protein. 10 µg of GST-tagged proteins or GST control (diluted in PBS from the stock of proteins kept in the purification elution buffer) were immobilized in 100 µL PBS on a 96-well MaxiSorp (Nunc) plate overnight at 4 °C. The plates were incubated with blocking buffer (with 0.5% BSA in PBS) for 1 h at 4 °C followed by washing with 0.05% Tween 20 in PBS four times. The naïve phage library (10^11 CFU) was diluted in 1/5th volume PEG/NaCl (20% PEG-8000, 0.4 M NaCl) and 1X PBS, incubated on ice for 10 min and centrifuged at 10,000 [drawing 3] g for 10 min. The pellet was resuspended in the volume of PBS (100 µL/ well). […]

The test system of assay [3] is USP8 MIT domain. Nature of the assay: Peptide-phage display-based deep mutational scanning (DMS), USP8 MIT domain. To be noted: for DMS-derived binding motif: M13 phage, triplicate selections in biological replicates, NGS, PSSM. Summed up: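 Four rounds of phage selection against immobilized GST-tagged bait (GST control pre-clearing) at 4 °C, using human disorderome or 16-mer deep mutational scanning library (all non-Cys substitutions), ≥3 replicates. Enriched pools sequenced by Illumina NGS; replicate-summed counts converted to averaged fractions and frequency PSSMs per wild-type peptide.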

“AGAALLALLAALCP [EGFR, Epidermal growth factor receptor peptide]”: in assay [1], the “Percentage (%) normalized to highest intensity and corrected for background” value (shortened to “Percentage (%) normalized”) is on record as 6%; the “Percentage (%)” value is recorded as 6%.

Regarding “APLLCLALLPALAA [NOTCH1, Neurogenic locus notch homolog protein 1 peptide]”, in assay [1], the “Percentage (%) normalized” value is given as 2%; the “Percentage (%)” value is reported as 2%.

“APPSLLLLLLAQLV [FZD5, Frizzled-5 peptide]”: in assay [1], the “Percentage (%) normalized” value was 24%; the “Percentage (%)” value is recorded as 24%.

With “DDLSRRFEELKKKT [IST1, IST1 homolog peptide]”, in assay [1], the “Percentage (%) normalized” value is 5%; the “Percentage (%)” value is 5%.

For the sequence “DKEIDLELLQDLME [BIRC6, Baculoviral IAP repeat-containing protein 6 peptide]”, in assay [1], the “Percentage (%) normalized” value is recorded as 12%; the “Percentage (%)” value was 12%.

“DPSNNFRLHNGRS [CFLAR, CASP8 and FADD-like apoptosis regulator peptide]”: in assay [1], the “Percentage (%) normalized” value was 31%; the “Percentage (%)” value is 31%.

Consider “GELLLLSLLLLLEP [PDGFRB, Platelet-derived growth factor receptor beta peptide]”, for which, in assay [1], the “Percentage (%) normalized” value was -3.37%; the “Percentage (%)” value was -3%.

“HDSLDSRIEMLLKEQR [SETD1B 496-511, Histone-lysine N-methyltransferase SETD1B peptide, overlapping]”: in assay [2], the max_counts stood at 7, the Confidence is listed as 2, the Counts turned out to be 0.0001221 and the Promiscuity was 1. In assay [2], the Replicates worked out at 3 and the Specificity was 1.

As for “HRRVRTEGKESSSASR [CACNA1E, Voltage-dependent R-type calcium channel subunit alpha-1E peptide 923-938]”, in assay [2], the “NGS counts (%)” value amounted to 0.87%, the max_counts is on record as 96, the Confidence was 2 and the Counts is given as 0.001177. Moreover, in assay [2], the Promiscuity was 3, the Replicates is 2 and the Specificity is recorded as 0.7101.

As to “KEPDALTLLAPAAG [HIF1A, Hypoxia-inducible factor 1-alpha peptide]”, in assay [1], the “Percentage (%) normalized” value is -0.189%; the “Percentage (%)” value is listed as 0%.

For the sequence MDDDYEAYHSLFLSLL [EFCAB12_1 − 16], the “PSSM score, enrichment_relative_to_wt” value in assay [3] (EFCAB12 MDDDYEAYHSLFLSLL, library USP8_DMS, days 2,3, quotient of wild type and mutant frequencies per column, highest divided by lowest) stood at 1. Also, the DMS-derived binding motif result in assay [3] is “[DE]Fx{2,3}R[FY]xxLL”. Moreover, in assay [2], the “NGS counts (%)” value stood at 78.22%, the max_counts is on record as 3851, the Confidence is reported as 3 and the Counts was 0.08013. In assay [2], the Promiscuity is on record as 6, the Replicates is given as 6 and the Specificity is reported as 0.9605.

Take “MDLLFGRRKTPEELL [CHMP2A, Charged multivesicular body protein 2a peptide]”: in assay [1], the “Percentage (%) normalized” value was -8%; the “Percentage (%)” value is -8%.

Consider “QAIYRHPLFPLLALLF [PKNOX1_56 − 71, Homeobox protein PKNOX1 peptide]”, for which, in assay [2], the “NGS counts (%)” value was 0.95%, the max_counts is given as 107, the Confidence was 2 and the Counts was determined as 0.001294. In assay [2], the Promiscuity is on record as 21, the Replicates came to 1 and the Specificity was determined as 0.5.

In the case of “SEVSDIESRIAALRAA [MLPH481 − 496, melanophilin peptide]”, the DMS-derived binding motif entry in assay [3] is “[DE]Fx{2,3}R[FY]xxLL”. Besides, in assay [2], the “NGS counts (%)” value is 0.52%, the max_counts is recorded as 33, the Confidence is recorded as 3 and the Counts was found to be 0.000511. In assay [2], the Promiscuity is on record as 2, the Replicates came to 3 and the Specificity is listed as 0.9365.

For “TKTLEERISKLISDNE [HIVEP1_741 − 756, Zinc finger protein 40 peptide]”, in assay [2], the “NGS counts (%)” value is 0.21%, the max_counts was 19, the Confidence was 2 and the Counts is on record as 0.001178. For the same sequence, in assay [2], the Promiscuity is given as 1, the Replicates is 2 and the Specificity amounted to 1.

Take “VLSKRKGGNVGKSKRD [ERVK-21, Endogenous retrovirus group K member 21 Env polyprotein peptide 676-691]”: in assay [2], the “NGS counts (%)” value is given as 0.16%, the max_counts came out at 18, the Confidence is 2 and the Counts was 0.000837. Also, in assay [2], the Promiscuity is 4, the Replicates amounted to 1 and the Specificity was found to be 0.5806.

Source of the values: article PMC12057046, “Elucidation of short linear motif-based interactions of the MIT and rhodanese domains of the ubiquitin-specific protease 8” (Biology Direct, 2025).
